Measurements as given in patent US10842152B2, “Isothiazolo-based bicycles, processes for their preparation and their use as herbicides and/or plant growth regulators” (Bayer CropScience Aktiengesellschaft, priority 2017, dated 2020).

Experiments:
Alopecurus myosuroides = test: Herbicidal effect pre-emergence; assay type: in vivo; settings: 320 g/ha, visual grading after ca. 3 weeks vs untreated controls
Source text: (§1) Herbicidal activities of the compounds of the formulae (G1) or (G2) according to the invention were investigated against the following harmful plants: • ALOMY=Alopecurus myosuroides • ECHCG=Echinochloa crus-galli • SETVI=Setaria viridis • ABUTH=Abutilon theophrasti • AMARE=Amaranthus retroflexus • PHBPU=Pharbitis purpurea • POLCO=Polygonum convolvulus (=Fallopia convolvulus) • STEME=Stellaria media • VIOTR=Viola tricolor
(§2) Seeds of mono- and dicotyledonous weed plants and crop plants are sown in wood-fiber pots in sandy loam and covered with soil. The compounds according to the invention, formulated in the form of wettable powders (WP) or as emulsifiable concentrates (EC), are then applied to the surface of the covering soil as aqueous suspension or emulsion, with the addition of 0.5% of an additive, at an application rate of 600 l of water/ha (converted).
(§3) Following treatment, the pots are placed in a greenhouse and kept under optimum growth conditions for the test plants. The visual grading of the damage to the test plants is carried out after ca. 3 weeks in comparison to untreated controls (herbicidal effect in percent (%): 100% effect=plants have died off, 0% effect=as control plants).

Amaranthus retroflexus [1] = test: Herbicidal effect pre-emergence; assay type: in vivo; settings: 320 g/ha, visual grading after ca. 3 weeks vs untreated controls
Source text: as §1, §2, §3

Setaria viridis [2] = test: Herbicidal effect pre-emergence; assay type: in vivo; settings: 320 g/ha, visual grading after ca. 3 weeks vs untreated controls
Source text: as §1, §2, §3

Stellaria media [3] = test: Herbicidal effect pre-emergence; assay type: in vivo; settings: 320 g/ha, visual grading after ca. 3 weeks vs untreated controls
Source text: as §1, §2, §3

Viola tricolor [4] = test: Herbicidal effect pre-emergence; assay type: in vivo; settings: 320 g/ha, visual grading after ca. 3 weeks vs untreated controls
Source text: as §1, §2, §3

MATIN [5] = test: Herbicidal effect pre-emergence; assay type: in vivo, Matricaria inodora; settings: 320 g/ha, visual grading after ca. 3 weeks vs untreated controls
Source text: as §2, §3

Amaranthus retroflexus [6] = test: Herbicidal effect post-emergence; assay type: in vivo; settings: 320 g/ha
Source text: as §1
(§4) Seeds of mono- and dicotyledonous weed plants and crop plants are sown in wood-fiber pots in sandy loam, covered with soil and grown in a greenhouse under controlled growth conditions. 2 to 3 weeks after sowing, the test plants are sprayed in the single-leaf stage. The compounds according to the invention, formulated in form of wettable powders (WP) or as emulsifiable concentrates (EC), are then sprayed onto the green plant parts as aqueous suspension or emulsion, with the addition of 0.5% of an additive, at an application rate of 600 l of water/ha (converted). After the test plants had been in the greenhouse for ca. 3 weeks under optimum growth conditions, the effect of the preparations is assessed visually in comparison with untreated controls (herbicidal effect in percent (%): 100% effect=plants have died off, 0% effect=as control plants).

Setaria viridis [7] = test: Herbicidal effect post-emergence; assay type: in vivo; settings: 320 g/ha
Source text: as §1, §4

Viola tricolor [8] = test: Herbicidal effect post-emergence; assay type: in vivo; settings: 320 g/ha
Source text: as §1, §4

Pharbitis purpurea = test: Herbicidal effect post-emergence; assay type: in vivo; settings: 320 g/ha, visual grading after ca. 3 weeks (Table 7)
Source text: as §1, §4

[9] = system: Polygonum convolvulus (=Fallopia convolvulus); test: Herbicidal effect post-emergence; assay type: in vivo; settings: 320 g/ha, visual grading after ca. 3 weeks (Table 7)
Source text: as §1, §4

Stellaria media [10] = test: Herbicidal effect post-emergence; assay type: in vivo; settings: 320 g/ha, visual grading after ca. 3 weeks (Table 7)
Source text: as §1, §4

MATIN [11] = test: Herbicidal effect post-emergence; assay type: in vivo, Matricaria inodora; settings: 320 g/ha, visual grading after ca. 3 weeks (Table 7)
Source text: as §4

[12] = visual grading after ca. 3 weeks (Table 9)
[13] = visual grading after ca. 3 weeks (Table 7)

| SMILES | herbicidal effect ALOMY (Alopecurus myosuroides) | herbicidal effect AMARE (Amaranthus retroflexus [1]) | herbicidal effect SETVI (Setaria viridis [2]) | herbicidal effect STEME (Stellaria media [3]) | herbicidal effect VIOTR (Viola tricolor [4]) | herbicidal effect MATIN (MATIN [5]) | herbicidal effect AMARE (Amaranthus retroflexus [6]; [12]) | herbicidal effect SETVI (Setaria viridis [7]; [12]) | herbicidal effect VIOTR (Viola tricolor [8]; [12]) | herbicidal effect AMARE (Amaranthus retroflexus [6]; [13]) | herbicidal effect PHBPU (Pharbitis purpurea) | herbicidal effect POLCO [9] | herbicidal effect SETVI (Setaria viridis [7]; [13]) | herbicidal effect STEME (Stellaria media [10]) | herbicidal effect VIOTR (Viola tricolor [8]; [13]) | herbicidal effect MATIN (MATIN [11]) |
| --- | --- | --- | --- | --- | --- | --- | --- | --- | --- | --- | --- | --- | --- | --- | --- | --- |
| O=C(Nc1nsc2c(=O)n(CC3CCCCC3)cc(Br)c12)C(F)(F)F [Example I-088] | 100% | 100% | 100% | 100% | 100% | 100% | 100% | 100% | 100% |  |  |  |  |  |  |  |
| O=C(Nc1nsc2c(=O)n(CC3CCCCC3Cl)cc(Cl)c12)C(F)F (racemic) [Example I-160] | 100% | 100% | 100% | 100% | 100% | 100% |  |  |  | 100% | 100% | 100% | 100% | 100% | 100% | 80% |
| O=C(Nc1nsc2c(=O)n(Cc3cc(F)c(F)cc3F)cc(F)c12)C(F)F [Example I-165] | 100% | 100% | 100% | 100% | 100% | 100% |  |  |  | 100% | 80% | 100% | 90% | 100% | 100% | 100% |
| Nc1nsc2c(=O)n(CC3CCCCC3)cc(Br)c12 [Example I-054, 3-amino-4-bromo-6-(cyclohexylmethyl)isothiazolo[5,4-c]pyridin-7-one] | 90% | 100% | 100% | 100% | 100% | 100% | 100% | 100% | 100% |  |  |  |  |  |  |  |
| COCc1cc2c(N)nsc2c(=O)n1CC1CCCCC1 [Example I-028] | 90% | 90% | 100% | 100% | 100% | 90% |  |  |  |  |  |  |  |  |  |  |
| O=C(Nc1nsc2c(=O)n(CC3CCCCC3)cc(Cl)c12)C(F)(F)C(F)(F)F [Example I-081] | 100% | 100% | 100% | 100% | 100% | 100% | 100% | 100% | 100% |  |  |  |  |  |  |  |
| CCC(=O)N(C(=O)CC)c1nsc2c(=O)n(CC3CCCCC3)cc(Cl)c12 [Example I-082] |  | 100% | 100% |  | 100% |  | 100% | 100% | 100% |  |  |  |  |  |  |  |
| CC(C)(C)OC(=O)OC1CN(CC2CCCCC2)C(=O)c2snc(N)c21 (centres unmarked) [Example I-138] | 100% | 100% | 100% | 100% | 100% | 90% | 100% | 80% | 100% |  |  |  |  |  |  |  |
| O=C(Nc1nsc2c(=O)n(CC3CCCCC3)cc(Br)c12)C(F)(F)C(F)(F)F [Example I-077] | 100% | 100% | 100% | 100% | 100% | 90% | 100% | 90% | 90% |  |  |  |  |  |  |  |
| O=C(Nc1nsc2c(=O)n(CC3CCCCC3)cc(Cl)c12)C(F)(F)F [Example I-086] | 100% | 100% | 100% | 100% | 100% | 100% | 100% | 100% | 100% |  |  |  |  |  |  |  |
| N#Cc1cn(CC2CCCCC2)c(=O)c2snc(N)c12 [Example I-135] |  | 100% | 100% |  | 100% |  | 100% | 90% | 100% |  |  |  |  |  |  |  |
| CCC(=O)Nc1nsc2c(=O)n(CC3CCCCC3)c(CO)cc12 [Example I-048] | 80% | 100% | 100% | 100% | 100% | 90% | 100% | 100% | 100% |  |  |  |  |  |  |  |
| Nc1nsc2c(=O)n(CC3CCCCC3)c(CO)cc12 [Example I-036] |  | 100% | 90% |  | 80% |  | 90% | 100% | 100% |  |  |  |  |  |  |  |
| CCC(=O)N(C(=O)CC)c1nsc2c(=O)n(CC3CCCCC3)cc(Br)c12 [Example I-079] |  | 100% | 100% |  | 100% |  | 100% | 90% | 100% |  |  |  |  |  |  |  |
| O=C(Nc1nsc2c(=O)n(CC3CCCCC3)c(CO)cc12)C(F)(F)C(F)(F)F [Example I-047] | 80% | 100% | 90% | 100% | 100% | 90% | 90% | 90% | 100% |  |  |  |  |  |  |  |
| COCC(=O)Nc1nsc2c(=O)n(CC3CCCCC3)cc(Cl)c12 [Example I-085] |  | 100% | 100% |  | 100% |  | 100% | 100% | 100% |  |  |  |  |  |  |  |
| C=Cc1cn(CC2CCCCC2)c(=O)c2snc(N)c12 [Example I-080] |  | 80% | 80% |  | 100% |  | 100% | 100% | 80% |  |  |  |  |  |  |  |
| COCC#Cc1cn(CC2CCCCC2)c(=O)c2snc(N)c12 [Example I-103] |  | 90% | 80% |  | 100% |  | 100% | 100% | 100% |  |  |  |  |  |  |  |
| C#Cc1cn(CC2CCCCC2)c(=O)c2snc(N)c12 [Example I-070] |  | 100% | 100% |  | 100% |  | 100% | 100% | 100% |  |  |  |  |  |  |  |
| CCC(=O)Nc1nsc2c(=O)n(CC3CCCCC3)c(CC)cc12 [Example I-029] | 90% | 100% | 90% | 90% | 100% | 90% |  |  |  |  |  |  |  |  |  |  |
| CCC(=O)Nc1nsc2c1CC(CO)N(CC1CCCCC1)C2=O (centres unmarked) [Example I-044] |  | 100% | 90% |  | 100% |  | 100% | 100% | 100% |  |  |  |  |  |  |  |
